Measured values from patent US7507727B2, “Substituted quinobenzoxazine analogs and methods of using thereof” (Cylene Pharmaceuticals, Inc., priority 2003, dated 2009).
Entries after “also recorded” stand apart in the source; their conditions may differ.

What was measured:
MiaPaCa xenograft = test: MiaPaCa pancreatic cancer xenograft model; type: in vivo, mice; details: 5, 10 and 15 mg/kg i.p. q.o.d., FIG. 10
Procedure: CX-3543 was tested against a number of cancer xenograft models to determine the in vivo efficacy. HCT-116 and PC-3 tumor-bearing nu/nu or MiaPaCa tumor-bearing SCID mice were administered reference and testing compounds on schedules indicated in figure legends. Tumor measurements were taken with calipers every other day or twice a week starting from the first day of dosing and body weights were measured at the same time points. Tumor volumes were calculated from the standard formula, W^2×L/2. c-MYC mRNA expression was measured with QPCR from all tumor samples following the final dose. 18S ribosomal RNA was used as a housekeeper and also quantified with QPCR.

[1] = tested on: BCl-2 quadruplex (BCL2-97); test: Direct interaction assay; type: binding
Text: (§1) Direct Interaction Assay. Compounds may be evaluated for their ability to interact directly with nucleic acids capable of forming a quadruplex structure, wherein the nucleic acid is not a telomeric nucleic acid. The assay may be performed in the same or different vessels. For example, a compound may be contacted with each nucleic acid in the same vessel. Alternatively, a compound may be separately contacted with each of the nucleic acids tested in a different vessel. A telomeric nucleic acid as used herein represents a region of highly repetitive nucleic acid at the end of a chromosome. As used herein, a direct interaction is measured without the presence of a competitor nucleic acid.
(§2) An interaction between the compound and the nucleic acid may be determined for example, by measuring IC50 values, which are indicative of the binding and/or quadruplex stabilization. The selectivity of interactions may be determined, for example, by comparing measured IC50 values. For example, the-lowest IC50 values may be used to indicate a strong interaction between the compound and the nucleic acid, while highest IC50 values show a poor interaction; thus, showing selectivity of interaction. The reaction products were characterized by capillary electrophoresis.
(§3) Using a direct interaction assay, CX-3543 was screened for its ability to bind to and/or stabilize different types of quadruplexes. In this example, a 5′-fluorescent-labeled (FAM) primer (P45, 15 nM) is mixed with template DNA (15 nM) in a Tris-HCL buffer (15 mM Tris, pH 7.5) containing 10 mM MgCl2, 0.1 mM EDTA and 0.1 mM mixed deoxynucleotide triphosphates (dNTP's). The mixture is denatured at 95° C. for 5 minutes and, after cooling down to room temperature, is incubated at 37° C. for 15 minutes. After cooling down to room temperature, 1 mM KCl and the test compound at various concentrations are added, and the mixture incubated for 15 minutes at room temperature. The primer extension is performed by adding […] and Taq DNA Polymerase (2.5 U/reaction, Promega), and incubating at 70° C. for 20 minutes.

SRC quadruplex (SRC89) = test: Direct interaction assay; type: binding
Text: as §1, §2, §3

[2] = tested on: HMGA-2 quadruplex (HMGA-97); test: Direct interaction assay; type: binding
Text: as §1, §2, §3

i-motif (IMOTIF99) = test: Direct interaction assay; type: binding
Text: as §1, §2, §3

[3] = tested on: H-RAS quadruplex (HRAS-85); test: Direct interaction assay; type: binding
Text: as §1, §2, §3

[4] = tested on: TGF-β quadruplex (TGFB3-81); test: Direct interaction assay; type: binding
Text: as §1, §2, §3

[5] = tested on: Hum Tel quadruplex (Humtel-95); test: Direct interaction assay; type: binding
Text: as §1, §2, §3

c-myc quadruplex (MYC99) = test: Direct interaction assay; type: binding
Text: as §1, §2, §3

[6] = tested on: caspase-3 activation in HCT-116; test: Caspase-3/7 assay; type: cell-based; details: HCT-116 cells, 24 hr, 1, 3 and 5 uM
Procedure: The following protocol was followed (24 hr). On Day 1, seed 0.015×10^6 HCT-116 cells/50 ul/well. Incubate o/n in 37° C. CO2 incubator. On Day 2, remove 25 ul of medium from wells. Treat HCT-116 cells with 1, 3, 5 uM CX-3543. Treat positive control group with Staurosporin 0.01, 0.1, 1 uM. Keep six negative control wells treated with medium only (add 25 ul of diluted sample to appropriate wells). Incubate for 24 h at 37° C. in a CO2 incubator. On Day 3, prepare Apo-ONE Homogeneous Caspase-3/7 assay reagent (Promega) at 10 ul reagent/1 ml buffer. Add 50 ul of diluted reagent. Incubate one hour at room temp. Measure fluorescence at 485/520.

topoisomerase I = topoisomerase I (Homo sapiens, UniProt P11387); test: Topoisomerase I inhibition; type: biochemical
Chain of topoisomerase I (P11387 whole entry): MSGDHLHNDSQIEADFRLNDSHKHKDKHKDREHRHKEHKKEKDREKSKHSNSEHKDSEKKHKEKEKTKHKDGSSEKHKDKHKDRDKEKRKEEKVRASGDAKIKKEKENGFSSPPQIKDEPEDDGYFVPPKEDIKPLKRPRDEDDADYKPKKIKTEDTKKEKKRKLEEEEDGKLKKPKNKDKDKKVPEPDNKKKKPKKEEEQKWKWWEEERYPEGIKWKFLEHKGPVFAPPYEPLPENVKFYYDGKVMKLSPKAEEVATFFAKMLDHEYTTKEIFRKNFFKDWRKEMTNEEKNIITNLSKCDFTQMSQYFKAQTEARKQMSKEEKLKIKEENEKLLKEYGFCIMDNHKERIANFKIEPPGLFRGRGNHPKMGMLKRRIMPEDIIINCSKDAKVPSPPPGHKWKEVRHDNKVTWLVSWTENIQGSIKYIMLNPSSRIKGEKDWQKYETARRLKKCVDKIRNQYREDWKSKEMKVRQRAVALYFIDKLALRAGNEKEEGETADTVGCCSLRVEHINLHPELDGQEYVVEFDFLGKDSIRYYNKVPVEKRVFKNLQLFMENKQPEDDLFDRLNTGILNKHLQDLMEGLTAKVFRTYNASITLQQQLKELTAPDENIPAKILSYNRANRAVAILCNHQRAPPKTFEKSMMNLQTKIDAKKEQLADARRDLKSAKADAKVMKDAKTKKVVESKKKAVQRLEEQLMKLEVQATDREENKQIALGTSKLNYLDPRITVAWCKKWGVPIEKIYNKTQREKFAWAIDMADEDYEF

CN1CCCC1CCNC(=O)c1cn2c3c(c(N4CCC(c5cnccn5)C4)c(F)cc3c1=O)Oc1cc3ccccc3cc1-2 (stereo not shown) [CX-3543]
tumor growth inhibition (MiaPaCa xenograft): inhibits tumor growth; also recorded: significant tumor growth inhibition | interaction with quadruplex ([1]; BCl-2, chair-eller / basket quadruplex): less strongly | IC50 ([1]; insert BCL-2): 2000 nM | interaction with quadruplex (SRC quadruplex (SRC89); SRC, heptad-tetrad): weakly | IC50 (SRC quadruplex (SRC89); insert SRC): > 10000 nM | interaction with quadruplex ([2]; HMGA-2, heptad-tetrad): weakly | IC50 ([2]; insert HMGA): > 10000 nM | interaction with quadruplex (i-motif (IMOTIF99); i-motif): weakly | IC50 (i-motif (IMOTIF99); insert I-Motif): > 10000 nM | interaction with quadruplex ([3]; H-RAS, propeller quadruplex): strongly | IC50 ([3]; insert H-RAS): 1100 nM | interaction with quadruplex ([4]; TGF-β, propeller quadruplex): strongly | IC50 ([4]; insert TGF-β): 1300 nM | interaction with quadruplex ([5]; Hum Tel, chair-eller / basket quadruplex): less strongly | IC50 ([5]; insert HumTel): 3300 nM | interaction with quadruplex (c-myc quadruplex (MYC99); c-myc, propeller quadruplex): strongly | IC50 (c-myc quadruplex (MYC99); insert c-MYC): 600 nM | caspase-3 levels [6]: dose responsive increase | inhibitory activity against topoisomerase I (topoisomerase I): not to be an inhibitor or poison
